Laboratory results from patent US20130217664A1, “NOVEL COMPOUNDS USEFUL FOR THE TREATMENT OF DEGENERATIVE AND INFLAMMATORY DISEASES” (priority 2012, published 2013).
Like-named read-outs stand apart in the source and are kept apart here.

Assays:
human JAK3 = target: T1, human JAK3 (Homo sapiens, UniProt P52333); experiment: JAK3 inhibition assay; format: biochemical; settings: recombinant human JAK3 catalytic domain; polyGT substrate
T1 construct: catalytic domain (amino acids 781-1124; catalog number PV3855); purchased Invitrogen PV3855
Summary of the method: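 Radiometric kinase assay: 0.5 ng JAK3 with 2.5 μg polyGT in Tris pH 7.5/MgCl2 buffer, 1 μM ATP plus 0.25 μCi 33P-γ-ATP, 1% DMSO, 45 min at 30 °C, stopped with phosphoric acid.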

[1] = tested on: pSTAT1(2)-luciferase reporter in HeLa cells triggered with human OSM; experiment: JAK-STAT signalling assay; format: cell-based; settings: read-out: JAK-STAT IC50
Summary of the method: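 Compound added 60 min before 33 ng/mL (final) human OSM; after overnight stimulation at 37 °C, luciferase signal from a transiently transfected pSTAT1(2) reporter in HeLa cells was read, with LacZ as internal control. EC50 derived from percent-inhibition dose-response curves.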

human JAK1 = target: T2, human JAK1 (Homo sapiens, UniProt P23458); experiment: JAK1 inhibition assay (polyGT substrate / Ulight-JAK1 peptide); format: biochemical; settings: recombinant human JAK1 catalytic domain; polyGT or Ulight-JAK1 peptide assay
T2 construct: catalytic domain, amino acids 866-1154; catalog number PV4774; purchased Invitrogen PV4774
Summary of the method: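 Signal scaled between vehicle and 10 μM staurosporine. Radiometric polyGT reactions ran 45 min at 30 °C, counted after phosphoric-acid stop. Ulight peptide reactions ran 60 min at room temperature, fluorescence read after adding Eu-PT66 detection mix with EDTA.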

human TYK2 = target: T3, human TYK2 (Homo sapiens, UniProt P29597); experiment: TYK2 inhibition assay; format: biochemical; settings: recombinant human TYK2 catalytic domain, polyGT substrate
T3 construct: catalytic domain (amino acids 871-1187; catalog number 08-147); purchased Carna Biosciences 08-147
T3 sequence (P29597 871-1187): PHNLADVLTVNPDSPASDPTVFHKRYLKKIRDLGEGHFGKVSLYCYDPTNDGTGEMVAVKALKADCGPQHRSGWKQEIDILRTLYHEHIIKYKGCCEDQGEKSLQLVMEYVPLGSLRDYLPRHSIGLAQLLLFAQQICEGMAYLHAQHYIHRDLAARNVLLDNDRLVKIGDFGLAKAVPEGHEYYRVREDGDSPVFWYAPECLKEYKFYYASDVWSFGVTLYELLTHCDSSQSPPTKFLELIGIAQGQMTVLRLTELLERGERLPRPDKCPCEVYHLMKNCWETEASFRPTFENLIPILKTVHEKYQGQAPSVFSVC
Summary of the method: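 Radiometric kinase reaction run 90 min at 30 °C, stopped with phosphoric acid, washed and scintillation-counted.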

CTLL-2 cell line = experiment: CTLL2 viability assay; format: cell-based; settings: Mus musculus, IL-2 dependent CTLL2 viability, 24 h, ATP-lite
Text: The protocol describes the methods to analyse the activity of compounds on their ability to sustain the IL2-dependent viability of CTLL2.
Final DMSO concentration was 0.1%.

human JAK2 = target: T4, human JAK2 (Homo sapiens, UniProt O60674); experiment: JAK2 inhibition assay (polyGT substrate / Ulight-JAK1 peptide); format: biochemical; settings: recombinant human JAK2 catalytic domain; polyGT or Ulight-JAK1 peptide assay
T4 construct: catalytic domain (amino acids 808-1132; catalog number PV4210); GST; purchased Invitrogen PV4210
Summary of the method: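 Two JAK2 formats: a ^33P-ATP polyGT assay (1 μM cold ATP, 90 min, 30° C., cpm read-out) and a Ulight-JAK1 peptide assay read by Europium-anti-phosphotyrosine fluorescence after 60 min at room temperature.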

[2] = HeLa cells, pSTAT1(2)-luciferase reporter, human OSM 33 ng/mL
[3] = Homo sapiens, HeLa, HeLa cells, pSTAT1(2)-luciferase reporter, human OSM 33 ng/mL

T4 sequence (O60674 808-1132): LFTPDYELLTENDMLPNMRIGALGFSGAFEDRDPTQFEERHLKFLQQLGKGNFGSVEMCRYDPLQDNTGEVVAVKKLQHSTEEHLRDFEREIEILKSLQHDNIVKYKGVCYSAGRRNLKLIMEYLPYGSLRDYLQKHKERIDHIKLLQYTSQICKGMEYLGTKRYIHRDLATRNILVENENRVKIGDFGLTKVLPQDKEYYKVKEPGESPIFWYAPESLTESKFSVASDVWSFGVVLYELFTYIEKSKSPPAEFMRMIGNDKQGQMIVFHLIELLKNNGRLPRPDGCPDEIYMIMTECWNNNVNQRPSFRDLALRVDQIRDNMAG
T2 sequence (P23458 866-1154): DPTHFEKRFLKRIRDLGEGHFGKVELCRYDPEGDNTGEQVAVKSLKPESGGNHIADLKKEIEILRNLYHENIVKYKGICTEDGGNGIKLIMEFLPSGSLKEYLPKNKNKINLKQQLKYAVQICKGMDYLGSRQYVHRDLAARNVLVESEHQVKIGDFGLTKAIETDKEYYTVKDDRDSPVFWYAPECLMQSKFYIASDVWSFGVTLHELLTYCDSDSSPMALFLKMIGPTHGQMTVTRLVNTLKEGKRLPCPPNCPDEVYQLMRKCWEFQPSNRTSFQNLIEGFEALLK
T1 sequence (P52333 781-1124): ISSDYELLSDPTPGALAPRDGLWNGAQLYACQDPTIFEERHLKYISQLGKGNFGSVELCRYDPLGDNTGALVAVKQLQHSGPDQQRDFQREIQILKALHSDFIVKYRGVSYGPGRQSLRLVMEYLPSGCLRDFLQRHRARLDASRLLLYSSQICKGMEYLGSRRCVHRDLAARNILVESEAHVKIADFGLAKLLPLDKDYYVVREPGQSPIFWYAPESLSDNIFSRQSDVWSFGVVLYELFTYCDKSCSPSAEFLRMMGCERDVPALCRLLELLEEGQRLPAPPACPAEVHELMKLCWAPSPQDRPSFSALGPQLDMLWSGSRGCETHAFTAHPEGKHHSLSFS

Structure (SMILES) | IC50 (human JAK3) [nM] | IC50 [1, 2] [nM] | IC50 (human JAK1) [nM] | IC50 (human TYK2) [nM] | IC50 [1, 3] [nM] | IC50 (human JAK2) [nM] | IC50 ([1]; Homo sapiens, HeLa) [nM] | IC50 (CTLL-2 cell line) [nM]
COc1cc(C2CCN(C(=O)CC#N)CC2)ncc1N(C)c1cc2c(cn1)ncn2C [Compound 265] | > 1000 | > 1000 | 501 to 1000 | > 1000 | – | – | – | –
CCN(c1cc2c(cn1)ncn2C)c1ccc(C#N)cc1F [Compound 266, 4-(ethyl(1-methyl-1H-imidazo[4,5-c]pyridin-6-yl)amino)-3-fluorobenzonitrile] | > 1000 | – | > 1000 | > 1000 | > 1000 | – | – | –
CCc1cc(CNC(=O)NC)ccc1N(C)c1cc2c(cn1)ncn2C [Compound 270, 1-(3-ethyl-4-(methyl(1-methyl-1H-imidazo[4,5-c]pyridin-6-yl)amino)benzyl)-3-methylurea] | > 1000 | – | 101 to 500 | > 1000 | > 1000 | – | – | –
CCOc1ccc(N(C)c2cc3c(cn2)ncn3C)c(CC)c1 [Compound 272, N-(4-ethoxy-2-ethylphenyl)-N,1-dimethyl-1H-imidazo[4,5-c]pyridin-6-amine] | 501 to 1000 | – | 0.01 to 100 | 0.01 to 100 | 501 to 1000 | – | – | –
COc1cc(C2CCN(S(C)(=O)=O)CC2)ncc1N(C)c1cc2c(cn1)ncn2C [Compound 276] | > 1000 | > 1000 | 0.01 to 100 | > 1000 | – | – | – | –
CCc1ccccc1N(CC(F)F)c1cc2c(cn1)ncn2C [Compound 284, (2,2-Difluoro-ethyl)-(2-ethyl-phenyl)-(1-methyl-1H-imidazo[4,5-c]pyridin-6-yl)-amine] | 101 to 500 | – | 0.01 to 100 | 0.01 to 100 | 501 to 1000 | – | – | –
CCc1cc(OCC#N)ccc1N(C)c1cc2c(cn1)ncn2C [Compound 295, 2-(3-ethyl-4-(methyl(1-methyl-1H-imidazo[4,5-c]pyridin-6-yl)amino)phenoxy)acetonitrile] | 101 to 500 | – | 0.01 to 100 | 0.01 to 100 | – | – | 1 to 500 | –
CCc1cc(C2CCN(CC#N)CC2)ncc1N(C)c1cc2c(cn1)ncn2C [Compound 384, {4-Ethyl-5-(methyl-(1-methyl-1H-imidazo[4,5-c]pyridin-6-yl)-amino)-3′,4′,5′,6′-tetrahydro-2′H-(2,4′]bipyridinyl-1′-yl}-acetonitrile] | > 1000 | – | 0.01 to 100 | 101 to 500 | – | 101 to 500 | – | > 1000
CCc1cc(N2CC[C@@H](F)C2)ncc1N(C)c1cc2c(cn1)ncn2C [Compound 414, [4-Ethyl-6-((R)-3-fluoro-pyrrolidin-1-yl)-pyridin-3-yl]-methyl-(1-methyl-1H-imidazo[4,5-c]pyridin-6-yl)-amine] | 101 to 500 | – | 0.01 to 100 | 0.01 to 100 | – | 0.01 to 100 | – | > 1000
CCc1cc(N2CC[C@H](F)C2)ncc1N(C)c1cc2c(cn1)ncn2C [Compound 415, [4-Ethyl-6-((S)-3-fluoro-pyrrolidin-1-yl)-pyridin-3-yl]-methyl-(1-methyl-1H-imidazo[4,5-c]pyridin-6-yl)-amine] | 0.01 to 100 | – | 0.01 to 100 | 0.01 to 100 | – | 0.01 to 100 | – | > 1000
CCc1cc(CN2CC3(COC3)C2)ccc1N(C)c1cc2c(cn1)ncn2C [Compound 419, [2-Ethyl-4-(2-oxa-6-aza-spiro[3.3]hept-6-ylmethyl)-phenyl]-methyl-(1-methyl-1H-imidazo[4,5-c]pyridin-6-yl)-amine] | > 1000 | – | 101 to 500 | > 1000 | – | > 1000 | – | > 1000
CCc1cc(CN2CCC(S(C)(=O)=O)C2)ccc1N(C)c1cc2c(cn1)ncn2C (centres unmarked) [Compound 420, [2-Ethyl-4-(3-methanesulfonyl-pyrrolidin-1-ylmethyl)-phenyl]-methyl-(1-methyl-1H-imidazo[4,5-c]pyridin-6-yl)-amine] | > 1000 | – | 0.01 to 100 | 101 to 500 | – | 101 to 500 | – | > 1000
CCc1cc(CN2CCNC(=O)C2)ccc1N(C)c1cc2c(cn1)ncn2C [Compound 421, 4-{3-Ethyl-4-[methyl-(1-methyl-1H-imidazo[4,5-c]pyridin-6-yl)-amino]-benzyl}-piperazin-2-one] | 501 to 1000 | – | 0.01 to 100 | 0.01 to 100 | – | 101 to 500 | – | > 1000
CCc1cc(CN2CCC(F)(F)CC2)ccc1N(C)c1cc2c(cn1)ncn2C [Compound 422, [4-(4,4-Difluoro-piperidin-1-ylmethyl)-2-ethyl-phenyl]-methyl-(1-methyl-1H-imidazo[4,5-c]pyridin-6-yl)-amine] | > 1000 | – | 0.01 to 100 | 501 to 1000 | – | 501 to 1000 | – | > 1000

Now from value to molecule, other results behind:

IC50 (human JAK3) [nM] | IC50 [1, 2] [nM] | IC50 (human JAK1) [nM] | IC50 (human TYK2) [nM] | IC50 [1, 3] [nM] | IC50 (human JAK2) [nM] | Structure (SMILES) | IC50 ([1]; Homo sapiens, HeLa) [nM] | IC50 (CTLL-2 cell line) [nM]
> 1000 | – | 501 to 1000 | > 1000 | > 1000 | – | CN(c1cc2c(cn1)ncn2C)c1ccc(C#N)cc1F [Compound 267, 3-fluoro-4-(methyl(1-methyl-1H-imidazo[4,5-c]pyridin-6-yl)amino)benzonitrile] | – | –
501 to 1000 | – | 0.01 to 100 | 0.01 to 100 | 1 to 500 | – | CCc1cc(OC)ccc1N(C)c1cc2c(cn1)ncn2C [Compound 271, N-(2-ethyl-4-methoxyphenyl)-N,1-dimethyl-1H-imidazo[4,5-c]pyridin-6-amine] | – | –
101 to 500 | > 1000 | 0.01 to 100 | 501 to 1000 | – | – | CN(c1cc2c(cn1)ncn2C)c1ccc(C2CN(S(C)(=O)=O)C2)cc1F [Compound 277, [2-Fluoro-4-(1-methanesulfonyl-azetidin-3-yl)-phenyl]-methyl-(1-methyl-1H-imidazo[4,5-c]pyridin-6-yl)-amine] | – | –
> 1000 | – | 0.01 to 100 | 101 to 500 | > 1000 | – | COC(=O)NCc1ccc(N(C)c2cc3c(cn2)ncn3C)c(F)c1 [Compound 283, {3-Fluoro-4-[methyl-(1-methyl-1H-imidazo[4,5-c]pyridin-6-yl)-amino]-benzyl}-carbamic acid methyl ester] | – | –
0.01 to 100 | 1 to 500 | 0.01 to 100 | 0.01 to 100 | – | – | CN(c1cc2c(cn1)ncn2C)c1ccc(C2CCN(S(C)(=O)=O)CC2)cc1OC(F)F [Compound 287, N-(2-(Difluoromethoxy)-4-(1-(methylsulfonyl)piperidin-4-yl)phenyl)-N,1-dimethyl-1H-imidazo[4,5-c]pyridin-6-amine] | – | –
101 to 500 | – | 0.01 to 100 | 501 to 1000 | – | 101 to 500 | CN(c1cc2c(cn1)ncn2C)c1ccc(C2CN(CC(F)F)C2)cc1OC(F)F [Compound 365, {4-[1-(2,2-Difluoro-ethyl)-azetidin-3-yl]-2-difluoromethoxy-phenyl}-methyl-(1-methyl-1H-imidazo[4,5-c]pyridin-6-yl)-amine] | – | > 1000
501 to 1000 | – | 0.01 to 100 | 101 to 500 | – | 101 to 500 | CN(c1cc2c(cn1)ncn2C)c1ccc(C2CN(S(=O)(=O)N3CCCCC3)C2)cc1OC(F)F [Compound 372, {2-Difluoromethoxy-4-[1-(piperidine-1-sulfonyl)-azetidin-3-yl]-phenyl}-methyl-(1-methyl-1H-imidazo[4,5-c]pyridin-6-yl)-amine] | – | > 1000
501 to 1000 | – | 0.01 to 100 | > 1000 | – | 101 to 500 | CC(C)S(=O)(=O)N1CC(c2ccc(N(C)c3cc4c(cn3)ncn4C)c(OC(F)F)c2)C1 [Compound 373, {2-Difluoromethoxy-4-[1-(propane-2-sulfonyl)-azetidin-3-yl]-phenyl}-methyl-(1-methyl-1H-imidazo[4,5-c]pyridin-6-yl)-amine] | – | > 1000
